{
  "source": "patent US20240279604A1",
  "about": "“3D spheroid having uniform size and composition comprising neuron and astrocyte derived from Alzheimer's disease patients, method for producing thereof, and method and kit for screening drug using thereof” (Industry-University Cooperation Foundation Hanyang …, priority 2023, published 2024)",
  "key": {"Aβ (1-42)": {"molecular_target": "T1, Aβ (1-42) (Homo sapiens, UniProt P05067)", "T1 construct": "an Aβ (1-42) peptide (AGP-8338, Anygen, Gwangju, Republic of Korea); purchased Anygen AGP-8338", "T1 sequence (P05067 672-713 limits assumed)": "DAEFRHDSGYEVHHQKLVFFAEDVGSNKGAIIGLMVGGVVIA", "experiment": "in vitro ThT fluorescence assay for Aβ (1-42) aggregation", "assay_type": "biochemical", "details": "10 μM compound, 2 μM Aβ (1-42), 20 μM ThT, pH 8.0, 37° C.; FIG. 6A", "method": "The degree of inhibition of Aβ (1-42) aggregation was measured using an in vitro ThT fluorescence assay. An Aβ (1-42) stock (0.2 mM) was prepared in 50% DMSO, and NDGA and CU stocks were prepared in 100% DMSO. Reactions for Aβ (1-42) aggregation (2 μM) and its inhibition by NDGA or CU (10 μM) were performed in a 20 mM sodium phosphate buffer (pH 8.0) supplemented with 0.2 mM EDTA and 0.02% sodium azide in the presence of 20 μM ThT in microplate wells (Corning® 96-well Black Flat Bottom Polystyrene Not Treated Microplate, Corning). ThT fluorescence intensity was measured every 30 minutes under 0.5 min shaking under 335 rpm/29.5 min incubation conditions at 37° C. using an Infinite […] (TECAN Mannedorf, Switzerland) microplate reader with 450-nm excitation and 480-nm emission filters."}, "[1]": {"test_system": "Alzheimer's disease-derived spheroids (PS1-mutated AD-iPSC-NPCs)", "experiment": "Aβ (1-42) ELISA in Alzheimer's disease-derived spheroids cultured with drug", "assay_type": "cell-based, human", "details": "10 μM, 3 days; FIG. 6B", "method": "(§1) For drug efficacy testing of 3D cultured cells, PS1-mutated AD-iPSC-NPCs were differentiated into spheroids in a U-bottom plate (Thermo Fisher Scientific). Spheroids were cultured with nordihydroguaiaretic acid (NDGA)(10 μM, Tokyo Chemical Industry, Tokyo, Japan) or curcumin (CU)(10 μM, Tokyo Chemical Industry) in a humidified incubator under 37° C. and 5% CO^2 conditions for 3 days and then fixed for immunocytochemistry and western blotting."}, "[2]": {"test_system": "Alzheimer's disease-derived spheroids (PS1-mutated AD-iPSC-NPCs)", "experiment": "ThT staining of Aβ aggregates in Alzheimer's disease-derived spheroids", "assay_type": "cell-based, human", "details": "10 μM, 3 days; confocal microscopy; FIG. 6C", "method": "as §1\n(§2) After washing with a probe-free medium, samples were captured and analyzed using a fluorescence microscope (FV3000, Olympus)."}, "[3]": {"test_system": "Alzheimer's disease-derived spheroids (PS1-mutated AD-iPSC-NPCs)", "experiment": "CellEvent Caspase-3/7 Green activated caspase staining in Alzheimer's disease-derived spheroids", "assay_type": "cell-based, human", "details": "for CellEvent fluorescence signal (activated caspase cell death staining): 10 μM, 3 days, confocal microscopy, FIG. 6D; for green fluorescence of activated caspase, confocal z-stack from surface to inside of spheroids (cell penetration/uptake): confocal z-stack images, FIG. 7", "method": "as §1\n(§3) After being washed with a probe-free medium, samples were captured and analyzed using a fluorescence microscope (FV3000, Olympus). Cell penetration/uptake by CellEvent staining was analyzed with confocal z-stack data for the green fluorescence of activated caspase released from the inside of spheroids. The confocal z-stack data was obtained from 100 slides of each 1 μm of one spheroid."}, "[4]": {"test_system": "3D spheroids manufactured from iPSC-NPCs derived from healthy individuals", "experiment": "ThT staining of control 3D spheroids treated with oligomerized Aβ", "assay_type": "cell-based, human", "details": "Aβ aggregates 10 μM, 24 hours, compared to spheroids not treated with Aβ; FIG. 4A", "source_text": "(§4) J Neurosci Methods. 2010; 190(2): 171-179. […] When used, Aβ was suspended in PBS and used.\nas §2"}, "[5]": {"test_system": "3D spheroids manufactured from iPSC-NPCs derived from healthy individuals", "experiment": "CellEvent activated caspase staining of control 3D spheroids treated with oligomerized Aβ", "assay_type": "cell-based, human", "details": "Aβ aggregates 10 μM, 24 hours, compared to untreated; FIG. 4C", "method": "as §4, §3"}},
  "note": "Entries after “also recorded” stand apart in the source; their conditions may differ.",
  "data": [
    {"compound": "CC(Cc1ccc(O)c(O)c1)C(C)Cc1ccc(O)c(O)c1", "note": "(stereo not drawn) [NDGA, nordihydroguaiaretic acid]", "values": [
      {"measurement": "Aβ (1-42) aggregation (ThT fluorescence)", "setting": "Aβ (1-42)", "result": "suppressed"},
      {"measurement": "Aβ (1-42) levels by ELISA", "setting": "[1]", "result": "decreased; also recorded: reduced"},
      {"measurement": "ThT fluorescence signal / staining intensity (Aβ aggregates)", "setting": "[2]", "result": "reduced"},
      {"measurement": "CellEvent fluorescence signal (activated caspase cell death staining)", "setting": "[3]", "result": "reduced"},
      {"measurement": "green fluorescence of activated caspase, confocal z-stack from surface to inside of spheroids (cell penetration/uptake)", "setting": "[3]", "result": "reduction in fluorescence from the surface to the inside of spheroids"}
    ]},
    {"compound": "oligomerized Aβ: Aβ (1-42) peptide aggregated/oligomerized in DMSO, used to treat control spheroids", "values": [
      {"measurement": "ThT fluorescence emission", "setting": "[4]", "result": "noticeably increased"},
      {"measurement": "green fluorescence emission according to CellEvent staining (cell death)", "setting": "[5]", "result": "substantially increased"}
    ]},
    {"compound": "COc1cc(/C=C/C(=O)CC(=O)/C=C/c2ccc(O)c(OC)c2)ccc1O", "note": "[CU, curcumin]", "values": [
      {"measurement": "Aβ (1-42) aggregation (ThT fluorescence)", "setting": "Aβ (1-42)", "result": "suppressed"},
      {"measurement": "Aβ (1-42) levels by ELISA", "setting": "[1]", "result": "decreased; also recorded: reduced"},
      {"measurement": "ThT fluorescence signal / staining intensity (Aβ aggregates)", "setting": "[2]", "result": "reduced"},
      {"measurement": "CellEvent fluorescence signal (activated caspase cell death staining)", "setting": "[3]", "result": "reduced"},
      {"measurement": "green fluorescence of activated caspase, confocal z-stack from surface to inside of spheroids (cell penetration/uptake)", "setting": "[3]", "result": "reduction in fluorescence from the surface to the inside of spheroids"}
    ]}
  ]
}
